In patent US9695154B2, “Heteroaryl inhibitors of sumo activating enzyme” (MILLENNIUM PHARMACEUTICALS, INC., priority 2013, dated 2017):

Target: T1, recombinant human SAE enzyme (Homo sapiens, UniProt Q9UBT2)
T1 sequence (Q9UBT2 1-640): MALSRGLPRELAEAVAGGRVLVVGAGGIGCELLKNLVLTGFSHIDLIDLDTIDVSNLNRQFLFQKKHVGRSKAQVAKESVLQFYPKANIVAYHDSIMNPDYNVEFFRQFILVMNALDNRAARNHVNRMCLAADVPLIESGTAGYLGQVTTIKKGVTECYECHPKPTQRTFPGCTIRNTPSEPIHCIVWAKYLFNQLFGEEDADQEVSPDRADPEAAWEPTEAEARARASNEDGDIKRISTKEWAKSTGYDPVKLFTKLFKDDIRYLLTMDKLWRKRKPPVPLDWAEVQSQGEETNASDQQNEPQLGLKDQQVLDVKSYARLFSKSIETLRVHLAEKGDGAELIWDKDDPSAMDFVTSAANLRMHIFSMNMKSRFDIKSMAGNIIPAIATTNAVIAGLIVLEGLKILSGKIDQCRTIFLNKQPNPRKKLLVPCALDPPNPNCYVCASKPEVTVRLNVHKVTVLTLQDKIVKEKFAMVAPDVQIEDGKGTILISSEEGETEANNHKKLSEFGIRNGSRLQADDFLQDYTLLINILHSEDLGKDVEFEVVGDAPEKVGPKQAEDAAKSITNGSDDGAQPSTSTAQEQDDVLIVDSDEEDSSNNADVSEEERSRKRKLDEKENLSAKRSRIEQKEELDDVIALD
T1 sequence (Q9UBE0 1-346 partner): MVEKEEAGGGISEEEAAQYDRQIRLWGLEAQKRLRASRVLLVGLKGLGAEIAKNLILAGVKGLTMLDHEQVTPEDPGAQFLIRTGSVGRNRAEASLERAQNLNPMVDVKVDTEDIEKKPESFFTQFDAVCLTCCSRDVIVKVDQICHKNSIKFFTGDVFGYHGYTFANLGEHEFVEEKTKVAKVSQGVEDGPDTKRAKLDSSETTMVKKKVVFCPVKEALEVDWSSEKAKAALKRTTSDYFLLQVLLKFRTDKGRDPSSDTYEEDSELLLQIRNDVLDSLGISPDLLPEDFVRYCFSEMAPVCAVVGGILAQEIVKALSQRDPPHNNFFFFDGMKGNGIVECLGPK
Assay: SAE HTRF Enzyme Assay
Assay type: biochemical
Settings: for IC50: class symbols A-C; for inhibition at 0.111 µM / Percent Inhibition: compound concentration 0.111 μM; for inhibition at 0.111 µM: read-out: Percent Inhibition; for Percent Inhibition: 0.111 µM
Outline: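 HTRF signal from Eu-anti-Flag/APC-anti-GST pairs reports Sumo-Flag loaded onto Ubc9-GST by 0.11 nM SAE. Reaction: 0.5 μM ATP, 0.125 μM Sumo-Flag, 0.01 μM Ubc9-GST, 5 mM MgCl2, pH 7.5, 105 min, 24° C. Single-concentration % inhibition or IC50 reported.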

SMILES | IC50 [nM] | inhibition at 0.111 µM [%] | Percent Inhibition [%]
Cc1ccc(Cn2ccc(C(=O)c3cncnc3N[C@@H]3C[C@H](COS(N)(=O)=O)[C@@H](O)[C@@H]3F)c2)o1 [Compound I-277, [(1R,2R,3R,4R)-3-fluoro-2-hydroxy-4-{[5-({1-[(5-methyl-2-furyl)methyl]-1H-pyrrol-3-yl}carbonyl)pyrimidin-4-yl]amino}cyclopentyl]methyl sulfamate] | < 10 | 99 | –
NS(=O)(=O)OC[C@H]1C[C@@H](Nc2ncncc2C(=O)c2ccn(C3(c4cccc(Cl)c4)CC3)c2)C[C@@H]1O [Compound I-264, [(1R,2S,4R)-4-{[5-({1-[1-(3-Chlorophenyl)cyclopropyl]-1H-pyrrol-3-yl}carbonyl)pyrimidin-4-yl]amino}-2-hydroxycyclopentyl]methyl sulfamate] | 10 to 100 | 90 | –
NS(=O)(=O)OC[C@H]1C[C@@H](Nc2ccncc2C(=O)c2ccn(Cc3ccc(Cl)c(Cl)c3)n2)C[C@@H]1O [Compound I-78, {(1R,2S,4R)-4-[(3-{[1-(3,4-dichlorobenzyl)-1H-pyrazol-3-yl]carbonyl}pyridin-4-yl)amino]-2-hydroxycyclopentyl}methyl sulfamate] | < 10 | 97 | –
NS(=O)(=O)OC[C@H]1C[C@@H](Nc2ncncc2C(=O)c2ccn(Cc3ccc(C(F)(F)F)cc3C(F)(F)F)n2)C[C@@H]1O [Compound I-69, [(1R,2S,4R)-4-{[5-({1-[2,4-bis(trifluoromethyl)benzyl]-1H-pyrazol-3-yl}carbonyl)pyrimidin-4-yl]amino}-2-hydroxycyclopentyl]methyl sulfamate] | 100 to 1000 | 39 | –
COc1ncccc1Cn1ccc(C(=O)c2cncnc2N[C@@H]2C[C@H](COS(N)(=O)=O)[C@@H](O)C2)n1 [Compound I-63, [(1R,2S,4R)-2-hydroxy-4-{[5-({1-[(2-methoxypyridin-3-yl)methyl]-1H-pyrazol-3-yl}carbonyl)pyrimidin-4-yl]amino}cyclopentyl]methyl sulfamate] | 10 to 100 | 87 | –
NS(=O)(=O)OC[C@H]1C[C@@H](Nc2ncncc2C(=O)c2ccn(Cc3ccccc3)n2)C[C@@H]1O [Compound I-158, [(1R,2S,4R)-4-({5-[(1-Benzyl-1H-pyrazol-3-yl)carbonyl]pyrimidin-4-yl}amino)-2-hydroxycyclopentyl]methyl sulfamate] | < 10 | 95 | –
NS(=O)(=O)OC[C@H]1C[C@@H](Nc2ncncc2C(=O)c2ccn(C3CCc4ccccc43)n2)[C@H](O)[C@@H]1O (single isomer, unassigned) [Compound I-353, {(1R,2R,3S,4R)-4-[(5-{[1-((1R)-2,3-dihydro-1H-inden-1-yl)-1H-pyrazol-3-yl]carbonyl}pyrimidin-4-yl)amino]-2,3-dihydroxycyclopentyl}methyl sulfamate or {(1R,2R,3S,4R)-4-[(5-{[1-((1S)-2,3-dihydro-1H-inden-1-yl)-1H-pyrazol-3-yl]carbonyl}pyrimidin-4-yl)amino]-2,3-dihydroxycyclopentyl}methyl sulfamate] | 10 to 100 | – | 90
Cc1cccc(Cn2ccc(C(=O)c3cncnc3N[C@@H]3C[C@H](COS(N)(=O)=O)[C@@H](O)C3)n2)c1F [Compound I-22, {(1R,2S,4R)-4-[(5-{[1-(2-fluoro-3-methylbenzyl)-1H-pyrazol-3-yl]carbonyl}pyrimidin-4-yl)amino]-2-hydroxycyclopentyl}methyl sulfamate] | < 10 | 100 | –
NS(=O)(=O)OC[C@H]1C[C@@H](Nc2ncncc2C(=O)c2ccn(Cc3ccc(Cl)c(Br)c3)n2)[C@H](O)[C@@H]1O [Compound I-204, {(1R,2R,3S,4R)-4-[(5-{[1-(3-bromo-4-chlorobenzyl)-1H-pyrazol-3-yl]carbonyl}pyrimidin-4-yl)amino]-2,3-dihydroxycyclopentyl}methyl sulfamate] | < 10 | 99 | –
NS(=O)(=O)OC[C@H]1C[C@@H](Nc2ncncc2C(=O)c2ccn(Cc3ccc(OC(F)(F)F)cc3)n2)[C@H](O)[C@@H]1O [Compound I-265, [(1R,2R,3S,4R)-2,3-dihydroxy-4-{[5-({1-[4-(trifluoromethoxy)benzyl]-1H-pyrazol-3-yl}carbonyl)pyrimidin-4-yl]amino}cyclopentyl]methyl sulfamate] | < 10 | 95 | –
C=CS(=O)(=O)c1cccc(Cn2ccc(C(=O)c3cncnc3N[C@@H]3C[C@H](COS(N)(=O)=O)[C@@H](O)[C@H]3O)n2)c1 [Compound I-321, [(1R,2R,3S,4R)-2,3-Dihydroxy-4-{[5-({1-[3-(vinylsulfonyl)benzyl]-1H-pyrazol-3-yl}carbonyl)pyrimidin-4-yl]amino}cyclopentyl]methyl sulfamate] | 10 to 100 | 89 | –
CC#CC(C)n1ccc(C(=O)c2cncnc2N[C@@H]2C[C@H](COS(N)(=O)=O)[C@@H](O)C2)n1 (single isomer, unassigned) [Compound I-86, {(1R,2S,4R)-2-hydroxy-4-[(5-{[1-(2S)-(pent-3-yn-2-yl)-1H-pyrazol-3-yl]carbonyl}pyrimidin-4-yl)amino]cyclopentyl}methyl sulfamate or {(1R,2S,4R)-2-hydroxy-4-[(5-{[1-(2R)-(pent-3-yn-2-yl)-1H-pyrazol-3-yl]carbonyl}pyrimidin-4-yl)amino]cyclopentyl}methyl sulfamate] | 100 to 1000 | – | 35
NS(=O)(=O)OC[C@H]1C[C@@H](Nc2ncncc2C(=O)c2ccn(Cc3cccc(OC(F)(F)F)c3)c2)[C@@H](F)[C@@H]1O [Compound I-131, [(1R,2R,3R,4R)-3-Fluoro-2-hydroxy-4-{[5-({1-[3-(trifluoromethoxy)benzyl]-1H-pyrrol-3-yl}carbonyl)pyrimidin-4-yl]amino}cyclopentyl]methyl sulfamate] | < 10 | 96 | –
NS(=O)(=O)OC[C@H]1C[C@@H](Nc2ncncc2C(=O)c2ccn(Cc3ccc(F)c(Br)c3)c2)[C@@H](F)[C@@H]1O [Compound I-143, {(1R,2R,3R,4R)-4-[(5-{[1-(3-bromo-4-fluorobenzyl)-1H-pyrrol-3-yl]carbonyl}pyrimidin-4-yl)amino]-3-fluoro-2-hydroxycyclopentyl}methyl sulfamate] | < 10 | 99 | –
NS(=O)(=O)OC[C@H]1C[C@@H](Nc2ncncc2C(=O)c2ccn(Cc3cc(C(F)(F)F)ccc3C(F)(F)F)n2)C[C@@H]1O [Compound I-261, [(1R,2S,4R)-4-{(5-({1-[2,5-bis(trifluoromethyl)benzyl]-1H-pyrazol-3-yl}carbonyl)pyrimidin-4-yl]amino}-2-hydroxycyclopentyl]methyl sulfamate] | < 10 | 97 | –
NS(=O)(=O)OC[C@H]1C[C@@H](Nc2ccncc2C(=O)c2ccn(Cc3cccc(OC(F)(F)F)c3)n2)C[C@@H]1O [Compound I-18, [(1R,2S,4R)-2-hydroxy-4-{[3({1-[3-(trifluoromethoxy)benzyl]-1H-pyrazol-3-yl}carbonyl)pyridin-4-yl]amino}cyclopentyl]methyl sulfamate] | < 10 | 96 | –
NS(=O)(=O)OC[C@H]1C[C@@H](Nc2ncncc2C(=O)c2ccn(Cc3ccc(Cl)c(Br)c3)c2)[C@@H](F)[C@@H]1O [Compound I-337, {(1R,2R,3R,4R)-4-[(5-{[1-(3-bromo-4-chlorobenzyl)-1H-pyrrol-3-yl]carbonyl}pyrimidin-4-yl)amino]-3-fluoro-2-hydroxycyclopentyl}methyl sulfamate] | < 10 | 98 | –
NS(=O)(=O)OC[C@H]1C[C@@H](Nc2ncncc2C(=O)c2cc(Cl)n(Cc3cccc(Cl)c3)c2)[C@@H](F)[C@@H]1O [Compound I-61] | < 10 | 99 | –
NS(=O)(=O)OC[C@H]1C[C@@H](Nc2ccncc2C(=O)c2ccn(Cc3ccc(F)c(Cl)c3)n2)C[C@@H]1O [Compound I-97, {(1R,2S,4R)-4-[(3-{[1-(3-Chloro-4-fluorobenzyl)-1H-pyrazol-3-yl]carbonyl}pyridin-4-yl)amino]-2-hydroxycyclopentyl}methyl sulfamate] | < 10 | 96 | –
NS(=O)(=O)OC[C@H]1C[C@@H](Nc2ncncc2C(=O)c2ccn(Cc3ccc4ccccc4c3)n2)[C@H](O)[C@@H]1O [Compound I-103, {(1R,2R,3S,4R)-2,3-dihydroxy-4-[(5-{[1-(2-naphthylmethyl)-1H-pyrazol-3-yl]carbonyl}pyrimidin-4-yl)amino]cyclopentyl}methyl sulfamate] | < 10 | 97 | –
